ChEMBL document CHEMBL1146862, “Synthesis of trifluoromethylaryl diazirine and benzophenone derivatives of etomidate that are potent general anesthetics and effective photolabels for probing sites on ligand-gated ion channels” (J Med Chem, 2006)
Activity calls are given as the source filed them. The rule behind the calls is not given here.

Legend:
[1] = target: T1, GABA-A receptor; alpha-1/beta-2/gamma-2 (Homo sapiens) (UniProt P14867+P47870+P18507); experiment: Enhancement of current in Xenopus laevis oocytes expressing human GABA-Alpha1 receptor plus beta-2-gamma-2L upto 10 uM; assay type: functional, cell-based; details: Oocyte
Xenopus sp. = experiment: Anesthetic activity in Xenopus tadpole measured as loss of righting reflex; assay type: functional, organism-based
[2] = target: T2, Serotonin 3 (5-HT3) receptor (Homo sapiens) (UniProt P46098+A5X5Y0+O95264+Q70Z44+Q8WXA8); experiment: Inhibition of 5HT3 receptor at 0.22 uM; assay type: protein-complex assay
[3] = target: T3, GABA-A receptor; anion channel (Homo sapiens) (UniProt P14867+P47870+P18507+P28472+P48169+Q99928+Q9UN88+P34903+O00591+O14764+Q8N1C3+P18505+P78334+P47869+P31644+Q16445); experiment: Enhancement of [3H]flunitrazepam binding to cerebral cortex GABA-A receptor at 0.1 uM; assay type: tissue-based
[4] = target: T1, GABA-A receptor; alpha-1/beta-2/gamma-2 (Homo sapiens); experiment: Enhancement of current in Xenopus laevis oocytes expressing human GABA-Alpha1 receptor plus beta-2-gamma-2L upto 1 uM; assay type: functional, cell-based; details: Oocyte
[5] = target: T3, GABA-A receptor; anion channel (Homo sapiens); experiment: Enhancement of [3H]flunitrazepam binding to cerebral cortex GABA-A receptor at 1 uM; assay type: tissue-based
[6] = target: T2, Serotonin 3 (5-HT3) receptor (Homo sapiens); experiment: Inhibition of 5HT3 receptor at 0.7 uM; assay type: protein-complex assay
[7] = target: T3, GABA-A receptor; anion channel (Homo sapiens); experiment: Reduction of [3H]flunitrazepam binding to cerebral cortex GABA-A receptor at 100 uM relative to control; assay type: tissue-based; design: scale not given: the % may be the effect or the level left
[8] = target: T3, GABA-A receptor; anion channel (Homo sapiens); experiment: Enhancement of [3H]flunitrazepam binding to cerebral cortex GABA-A receptor at >=1 uM; assay type: tissue-based
[9] = target: T2, Serotonin 3 (5-HT3) receptor (Homo sapiens); experiment: Inhibition of 5HT3 receptor at 2.3 uM; assay type: protein-complex assay
[10] = target: T3, GABA-A receptor; anion channel (Homo sapiens); experiment: Enhancement of [3H]flunitrazepam binding to cerebral cortex GABA-A receptor at >=0.3 uM; assay type: tissue-based
[11] = target: T2, Serotonin 3 (5-HT3) receptor (Homo sapiens); experiment: Inhibition of 5HT3 receptor at 2.2 uM; assay type: protein-complex assay
[12] = target: T4, Acetylcholine receptor subunit delta (Torpedo californica) (UniProt P02718); experiment: Photolabeling of Torpedo californica delta nAChR in presence of agonist relative to in absence of agonist; assay type: functional; details: Tetronarce californica
T4 sequence (whole entry): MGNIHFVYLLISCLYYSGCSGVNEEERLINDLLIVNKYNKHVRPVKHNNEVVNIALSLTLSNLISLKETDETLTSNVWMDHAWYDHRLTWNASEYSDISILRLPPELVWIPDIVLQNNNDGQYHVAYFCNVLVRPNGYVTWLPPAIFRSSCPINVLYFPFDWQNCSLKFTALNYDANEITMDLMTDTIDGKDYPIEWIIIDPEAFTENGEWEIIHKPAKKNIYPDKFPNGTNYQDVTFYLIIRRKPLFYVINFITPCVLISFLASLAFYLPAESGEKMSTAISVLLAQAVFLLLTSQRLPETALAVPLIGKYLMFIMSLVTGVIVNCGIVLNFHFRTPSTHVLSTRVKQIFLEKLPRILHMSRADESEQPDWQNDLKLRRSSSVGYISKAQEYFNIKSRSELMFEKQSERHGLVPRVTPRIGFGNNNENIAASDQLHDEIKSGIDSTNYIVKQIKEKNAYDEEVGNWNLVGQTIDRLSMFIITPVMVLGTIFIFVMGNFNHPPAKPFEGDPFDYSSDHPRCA

[13] = target: Acetylcholine receptor subunit alpha (Torpedo californica) (UniProt P02710); experiment: Photolabeling of Torpedo californica alpha nAChR in presence of agonist relative to in absence of agonist; assay type: functional; details: Tetronarce californica
Chain of Acetylcholine receptor subunit alpha (Torpedo californica) (P02710 whole entry): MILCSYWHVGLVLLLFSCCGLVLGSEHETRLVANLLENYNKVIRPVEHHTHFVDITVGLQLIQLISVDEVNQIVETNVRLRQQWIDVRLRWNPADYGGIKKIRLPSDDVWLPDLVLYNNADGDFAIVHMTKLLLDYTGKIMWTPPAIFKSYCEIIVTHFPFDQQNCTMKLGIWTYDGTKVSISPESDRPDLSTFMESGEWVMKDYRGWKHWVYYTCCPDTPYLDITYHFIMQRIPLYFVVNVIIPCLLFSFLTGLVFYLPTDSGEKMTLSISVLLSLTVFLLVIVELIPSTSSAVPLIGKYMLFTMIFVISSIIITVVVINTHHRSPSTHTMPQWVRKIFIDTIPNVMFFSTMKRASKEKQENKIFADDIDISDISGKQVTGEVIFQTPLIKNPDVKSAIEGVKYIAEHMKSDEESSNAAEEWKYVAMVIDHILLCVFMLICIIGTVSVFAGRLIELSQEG

`C[C@H](c1ccccc1)n1cncc1C(=O)OCc1ccc(C(=O)c2ccccc2)cc1` was tested, and the Activity [1] was “inactive”, the EC50 (Xenopus sp.) was 220 nM and the inhibition [2] was < 10%. The Activity [3] was “Active”.

With `C[C@H](c1ccccc1)n1cncc1C(=O)OCc1ccc(C2(C(F)(F)F)N=N2)cc1` the Activity [4] was “inactive”, the Activity [5] was “Active” and the EC50 (Xenopus sp.) was 700 nM. The inhibition [6] was < 10%.

For `CCOC(=O)c1cncn1[C@H](C)c1ccccc1` [ETOMIDATE], the Activity [7] was 78.5%, the Activity [8] was “Active” and the inhibition [9] was 11%. The EC50 (Xenopus sp.) was 2300 nM.

`CC(c1ccccc1)n1cncc1C(=O)OCCC1(C)N=N1` (stereo not drawn) [AZIETOMIDATE] was tested, and the Activity [7] was 115%, the EC50 (Xenopus sp.) was 2200 nM and the Activity [10] was “Active”. The inhibition [11] was 8%.

Work on `C[N+](C)(C)CCOC(N)=O` yielded an Activity [12] of 60%.

Work on `CCCC(C(=O)OCCN(CC)CC)(c1ccccc1)c1ccccc1` yielded an Activity [13] of 70%.
